Key:
RAW264.7 macrophages = test: Cell viability assay (CCK-8) in RAW264.7 macrophages; assay type: cell-based; conditions: RAW 264.7 cells, 24 h, tested at 20, 40, 80 μmol/L
Experimental: RAW264.7 macrophages were seeded in 96-well plates (5 × 10^4 cells/well) and cultured at 37 °C with 5% CO₂ for 24 h. After adhesion, test samples (20, 40, 80 μmol/L) or medium (blank) were added and incubated for 24 h. Subsequently, 10 μL of CCK-8 solution was added, and after 2 h of incubation, the absorbance was measured at 450 nm.
Cell viability (%) = (ODsample/ODblank) × 100%

RAW 264.7 cells = test: NO production inhibition in LPS-induced RAW 264.7 cells (Griess reagent method); assay type: cell-based; conditions: LPS-induced (10 μg/mL) RAW 264.7 cells, 24 h, mean ± standard deviation (n = 3)
Experimental: RAW 264.7 cells were cultured as above, then divided into blank control, LPS-induced (10 μg/mL, model), and sample-treated groups. After 24 h, supernatants were centrifuged (12,000 r/min, 5 min) and collected. NO production was assessed using the standard Griess reagent method (Fan et al. [2023]).
Inhibition rate (%) = [(NOmodel – NOsample)/(NOmodel – NOblank)] × 100%.

Compound	Cytotoxicity (RAW264.7 macrophages)	IC50 (RAW 264.7 cells; Mus musculus, RAW264.7)	IC50 (RAW 264.7 cells)
COC(=O)C(C)(C)c1ccc(C(=O)O)c2c1C(=O)OC2O (racemic) [Compound 8, (±)-Marasmielolic acid D]	> 80 µmol/L	50.8 ± 3.4 µM	
N=C(N)NN [Aminoguanidine, aminoguanidine, reference compound]	> 80 µmol/L		12.5 ± 1.8 µM
CC1(C)OC(=O)c2c1ccc1c2COC1=O [Compound 1, Marasmiellactone R]	> 80 µmol/L	18.2 ± 1.9 µM	
C[C@]1(CO)OC(=O)c2c1ccc1c2COC1=O [Compound 2, Marasmiellactone S]	> 80 µmol/L	16.7 ± 1.6 µM	
CC(=O)OC[C@@]1(C)OC(=O)c2c1ccc1c2COC1=O [Compound 3, 10-O-acetylmarasmiellactone S]	> 80 µmol/L	22.1 ± 2.6 µM	
C[C@@H]1OC(=O)c2c1ccc1c2COC1=O [Compound 4, 10-normarasmiellactone R]	> 80 µmol/L	15.5 ± 1.4 µM	
CC(C)(CC(=O)O)c1ccc(C(=O)O)c2c1C(=O)NC2=O [Compound 5, Marasmielolic acid A]	> 80 µmol/L	53.5 ± 3.9 µM	
CC(C)(CC(=O)O)c1ccc(C(=O)O)c2c1C(=O)OC2 [Compound 6, Marasmielolic acid B]	> 80 µmol/L	65.4 ± 4.6 µM	
CC(C)(C(=O)O)c1ccc(C(=O)O)c2c1C(=O)OC2 [Compound 7, normarasmielolic acid B]	> 80 µmol/L	69.2 ± 3.1 µM	
COC(=O)c1c(C(=O)O)ccc2c1C(=O)OC2(C)C [Compound 9, Marasmielolic acid E]	> 80 µmol/L	> 100 µM	
COC(=O)c1c(C(=O)O)ccc2c1C(=O)C(O)=CC2(C)C [Compound 10, Marasmielolic acid F]	> 80 µmol/L	> 100 µM	

Reference: paper PMC13267044, “Ten previously undescribed norsesquiterpenoids from the fungus Marasmiellus candidus and their anti-inflammatory activities” (Mycology, 2025)
